Test results taken from patent US9730937B2, “RAF kinase modulator compounds and methods of use thereof” (AMBIT BIOSCIENCES CORPORATION, priority 2008, dated 2017).
Where a name gives a salt, the structure may show the parent alone. Read-outs that look alike come from different tables or passages of the source.

Experiments:
mutant BRAF kinase = mutant BRAF kinase (Homo sapiens (Human), UniProt P15056, V600E); details: read-out: BRAF V600E Kd, class symbols
wild type BRAF kinase = wild type BRAF kinase (Homo sapiens (Human), UniProt P15056); details: read-out: BRAF WT Kd, class symbols
RAF kinases = RAF kinases (Homo sapiens (Human), UniProt P04049); details: read-out: RAF1 Kd, class symbols
Experimental: The liganded beads were blocked with excess biotin and washed with blocking buffer (SeaBlock (Pierce), 1% BSA, 0.05% Tween 20, 1 mM DTT) to remove unbound ligand and to reduce non-specific binding. […] Test compounds were prepared as 100× stocks in DMSO and rapidly diluted into the aqueous environment. DMSO was added to control assays lacking a test compound. Primary screen interactions were performed in polypropylene 384-well plates in a final volume of 34 μL, while Kd determinations were performed in polystyrene 96-well plates in a final volume of 135 μL. […] The kinase concentration in the eluates was measured by quantitative PCR. Each kinase was tested individually against each compound. KdS were determined using eleven serial threefold dilutions. A selectivity score, which is a quantitative measure of selectivity of a compound against a panel of enzymes, may be calculated for a compound by dividing the number of enzymes for which a compound meets a set criteria, (for example, a binding constant of 100 nM or less), by the total number of enzymes tested. […] (Note, for those compounds tested in a larger kinase panel, as indicated by an asterisk (*) next to the S35 score, the divisor is 321 (i.e. the larger panel contains 321 distinct kinases, excluding mutant variants.)).

[1] = tested on: panel of 290 distinct kinases (321 in the larger panel), excluding mutant variants; details: kinase selectivity score, class symbols
[2] = value marked * (larger kinase panel)

Chain of mutant BRAF kinase (P15056 whole entry V600E): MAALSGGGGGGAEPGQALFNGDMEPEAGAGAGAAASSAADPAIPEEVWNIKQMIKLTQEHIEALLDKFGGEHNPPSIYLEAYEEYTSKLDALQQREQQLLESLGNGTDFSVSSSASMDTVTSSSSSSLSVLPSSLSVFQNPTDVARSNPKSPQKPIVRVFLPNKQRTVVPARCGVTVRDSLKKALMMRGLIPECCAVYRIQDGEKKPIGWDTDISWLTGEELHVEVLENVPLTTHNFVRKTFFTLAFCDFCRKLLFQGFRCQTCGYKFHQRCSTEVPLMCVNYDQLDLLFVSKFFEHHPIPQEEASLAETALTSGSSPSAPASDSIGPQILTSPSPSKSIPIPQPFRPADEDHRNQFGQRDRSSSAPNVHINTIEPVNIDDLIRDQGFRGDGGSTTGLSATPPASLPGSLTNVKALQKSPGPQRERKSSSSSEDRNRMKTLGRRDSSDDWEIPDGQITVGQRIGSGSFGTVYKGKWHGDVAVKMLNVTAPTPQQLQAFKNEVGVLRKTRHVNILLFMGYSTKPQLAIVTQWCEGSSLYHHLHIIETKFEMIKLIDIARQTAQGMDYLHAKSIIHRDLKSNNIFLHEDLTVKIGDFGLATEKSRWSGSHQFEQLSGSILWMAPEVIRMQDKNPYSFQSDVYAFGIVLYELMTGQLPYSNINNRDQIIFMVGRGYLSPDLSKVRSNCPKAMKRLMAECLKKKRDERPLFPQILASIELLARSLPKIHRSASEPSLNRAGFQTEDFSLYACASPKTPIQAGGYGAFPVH
Chain of wild type BRAF kinase (P15056 whole entry): as the sequence (P15056 whole entry V600E) above, with E600V counted along it
Chain of RAF kinases (P04049 whole entry): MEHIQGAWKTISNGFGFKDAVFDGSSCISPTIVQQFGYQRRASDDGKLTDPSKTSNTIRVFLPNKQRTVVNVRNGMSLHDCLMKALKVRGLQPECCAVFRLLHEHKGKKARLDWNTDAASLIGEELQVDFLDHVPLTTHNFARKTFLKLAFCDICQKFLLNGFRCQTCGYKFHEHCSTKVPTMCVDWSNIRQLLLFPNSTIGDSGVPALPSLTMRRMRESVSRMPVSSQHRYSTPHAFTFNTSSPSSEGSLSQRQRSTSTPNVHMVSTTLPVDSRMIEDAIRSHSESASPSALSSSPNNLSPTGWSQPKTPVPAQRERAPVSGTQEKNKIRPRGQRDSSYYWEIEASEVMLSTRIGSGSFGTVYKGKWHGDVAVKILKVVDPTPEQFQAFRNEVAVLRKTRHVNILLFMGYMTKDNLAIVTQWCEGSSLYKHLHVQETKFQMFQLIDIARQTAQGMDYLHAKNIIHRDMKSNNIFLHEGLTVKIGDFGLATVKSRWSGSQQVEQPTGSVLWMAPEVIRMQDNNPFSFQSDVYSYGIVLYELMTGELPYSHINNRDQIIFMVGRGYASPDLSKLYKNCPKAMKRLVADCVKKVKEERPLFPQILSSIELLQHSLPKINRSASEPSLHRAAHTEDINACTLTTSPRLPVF

SMILES	Kd (mutant BRAF kinase)	Kd (wild type BRAF kinase)	Kd (RAF kinases)	S35 [1, 2]	S35 ([1]; 290 distinct kinases)
COc1cc2ncnc(Sc3cccc(NC(=O)Nc4cc(C(C)(CF)CF)nn4-c4ccccc4)c3)c2cc1OC [Ex 196, 1-[3-(1,3-difluoro-2-methylpropan-2-yl)-1-phenyl-1H-pyrazol-5-yl]-3-[3-(6,7-dimethoxyquinazolin-4-ylthio)phenyl]urea]	> 1000 nM	> 1000 nM	> 1000 nM	D* (D > 0.40)	
COc1cc2ncnc(Sc3cccc(NC(=O)Nc4cc(C(C)(C)C)on4)c3)c2cc1OCCS(C)(=O)=O [Ex 88, 1-(5-tert-butylisoxazol-3-yl)-3-(3-(7-methoxy-6-(2-(methylsulfonyl)ethoxy)quinazolin-4-ylthio)phenyl)urea]	< 250 nM	< 250 nM	< 250 nM		C (0.20 < C ≦ 0.40)
COc1cc2ncnc(Sc3cccc(NC(=O)Nc4cc(C(C)(C)C)nn4-c4ccccc4)c3)c2cc1OC [Ex 154, 1-(3-tert-butyl-1-phenyl-1H-pyrazol-5-yl)-3-(3-(6,7-dimethoxyquinazolin-4-ylthio)phenyl)urea]	> 1000 nM	> 1000 nM	> 1000 nM	D* (D > 0.40)	
COCCOc1cc2ncnc(Oc3cccc(NC(=O)Nc4ccc(OC)c(C(F)(F)F)c4)c3)c2cc1OC [Ex 139, 1-(4-methoxy-3-(trifluoromethyl)phenyl)-3-(3-(6-methoxy-7-(2-methoxyethoxy)quinazolin-4-yloxy)phenyl)urea]	< 250 nM	< 250 nM	< 250 nM	C* (0.20 < C ≦ 0.40)	
COc1cc2ncnc(Oc3cccc(NC(=O)Nc4cc(C(C)(C)C)on4)c3)c2cc1OCCCN1CCOCC1 [Ex 22, 1-(5-tert-butylisoxazol-3-yl)-3-(3-(7-methoxy-6-(3-morpholinopropoxy)quinazolin-4-yloxy)phenyl)urea]	< 250 nM	< 250 nM	< 250 nM		D (D > 0.40)
COc1cc2ncnc(Oc3cccc(NC(=O)Nc4cccc(C(F)(F)F)c4)c3)c2cc1OC [Ex 181, 1-(3-(6,7-dimethoxyquinazolin-4-yloxy)phenyl)-3-(3-(trifluoromethyl)phenyl)urea]	< 250 nM	< 250 nM	< 250 nM	C* (0.20 < C ≦ 0.40)	
COc1cc2ncnc(Sc3cccc(NC(=O)Nc4cc(C(C)(C)C)on4)c3)c2cc1OCCN1CCS(=O)(=O)CC1 [Ex 71, 1-(5-tert-butyl-isoxazol-3-yl)-3-(3-{6-[2-(1,1-dioxo-thiomorpholin-4-yl)-ethoxy]-7-methoxy-quinazolin-4-ylsulfanyl}-phenyl)-urea]	< 250 nM	< 250 nM	< 250 nM		C (0.20 < C ≦ 0.40)
COc1cc2ncnc(Oc3cccc(NC(=O)Nc4cc(C5(C)CC5)on4)c3)c2cc1OC [Ex 127, 1-(3-(6,7-dimethoxyquinazolin-4-yloxy)phenyl)-3-(5-(1-methylcyclopropyl)isoxazol-3-yl)urea]	< 250 nM	< 250 nM	< 250 nM		C (0.20 < C ≦ 0.40)
COc1cc2ncnc(Oc3cccc(NC(=O)Nc4cc(C(C)C)on4)c3)c2cc1OC [Ex 133, 1-(3-(6,7-dimethoxyquinazolin-4-yloxy)phenyl)-3-(5-isopropylisoxazol-3-yl)urea]	< 250 nM	< 250 nM	< 250 nM	C* (0.20 < C ≦ 0.40)	
COc1cc2ncnc(Oc3cccc(NC(=O)Nc4cc(C(F)(F)F)nn4-c4ccc(C)cc4)c3)c2cc1OC [Ex 172, 1-[3-(6,7-dimethoxyquinazolin-4-yloxy)phenyl]-3-[1-p-tolyl-3-(trifluoromethyl)-1H-pyrazol-5-yl]urea]		> 1000 nM	> 1000 nM	C* (0.20 < C ≦ 0.40)	
COc1cc2ncnc(Oc3cc(NC(=O)Nc4cc(C(C)(C)C)on4)ccc3Cl)c2cc1OC [Ex 10, 1-(5-tert-butylisoxazol-3-yl)-3-(4-chloro-3-(6,7-dimethoxyquinazolin-4-yloxy)phenyl)urea]		> 1000 nM	> 1000 nM		C (0.20 < C ≦ 0.40)
COc1ccc2c(Sc3cccc(NC(=O)Nc4cc(C(C)(C)C)on4)c3)ncnc2c1 [Ex 48, 1-(5-tert-butylisoxazol-3-yl)-3-(3-(7-methoxyquinazolin-4-ylthio)phenyl)urea]		> 1000 nM	> 1000 nM		C (0.20 < C ≦ 0.40)
COc1cc2ncnc(Oc3cccc(NC(=O)Nc4cc(C(F)(F)F)nn4-c4ccc(F)cc4)c3)c2cc1OC [Ex 171, 1-[3-(6,7-dimethoxyquinazolin-4-yloxy)phenyl]-3-[1-(4-fluorophenyl)-3-(trifluoromethyl)-1H-pyrazol-5-yl]urea]		> 1000 nM	> 1000 nM	C* (0.20 < C ≦ 0.40)	
CCOC(=O)Cn1nc(C(C)(C)C)cc1NC(=O)Nc1cccc(Sc2ncnc3cc(OC)c(OC)cc23)c1 [Ex 195, ethyl 2-(3-tert-butyl-5-{3-[3-(6,7-dimethoxyquinazolin-4-ylthio)phenyl]ureido}-1H-pyrazol-1-yl)acetate]		> 1000 nM	> 1000 nM	C* (0.20 < C ≦ 0.40)	
COc1cc2ncnc(Oc3cccc(NC(=O)Nc4cc(C(F)(F)F)nn4-c4ccccc4)c3)c2cc1OC [Ex 161, 1-[3-(6,7-dimethoxyquinazolin-4-yloxy)phenyl]-3-[1-phenyl-3-(trifluoromethyl)-1H-pyrazol-5-yl]urea]		> 1000 nM	> 1000 nM	C* (0.20 < C ≦ 0.40)	
COc1cc2ncnc(Oc3cccc(NC(=O)Nc4cc(C(=O)N5CCOCC5)cc(C(F)(F)F)c4)c3)c2cc1OC [Ex 149, 1-(3-(6,7-dimethoxyquinazolin-4-yloxy)phenyl)-3-(3-(morpholine-4-carbonyl)-5-(trifluoromethyl)phenyl)urea]		> 1000 nM	> 1000 nM	B* (0.10 < B ≦ 0.20)	
CCOC(C)(C)c1cc(NC(=O)Nc2cccc(Oc3ncnc4cc(OC)c(OC)cc34)c2)n(-c2ccccc2)n1 [Ex 168, 1-[3-(6,7-dimethoxyquinazolin-4-yloxy)phenyl]-3-[3-(2-ethoxypropan-2-yl)-1-phenyl-1H-pyrazol-5-yl]urea]		> 1000 nM	> 1000 nM	C* (0.20 < C ≦ 0.40)	
COc1cc2ncnc(Sc3cccc(NC(=O)Nc4ccc(Cl)c(C(F)(F)F)c4)c3)c2cc1OC [Ex 186, 1-(4-chloro-3-(trifluoromethyl)phenyl)-3-(3-(6,7-dimethoxyquinazolin-4-ylthio)phenyl)urea]		> 1000 nM	> 1000 nM	B* (0.10 < B ≦ 0.20)	
COCC(C)(C)c1cc(NC(=O)Nc2cccc(Oc3ncnc4cc(OC)c(OC)cc34)c2)no1 [Ex 130, 1-(3-(6,7-dimethoxyquinazolin-4-yloxy)phenyl)-3-(5-(1-methoxy-2-methylpropan-2-yl)isoxazol-3-yl)urea]		> 1000 nM	> 1000 nM		C (0.20 < C ≦ 0.40)
CC(C)(C)c1cc(NC(=O)Nc2cccc(Sc3ncnc4cc5c(cc34)OCCO5)c2)no1 [Ex 54, 1-(5-tert-butylisoxazol-3-yl)-3-[3-(7,8-dihydro-[1,4]dioxino[2,3-g]quinazolin-4-ylthio)phenyl]urea hydrochloride]		> 1000 nM	> 1000 nM		C (0.20 < C ≦ 0.40)
COc1cc2ncnc(Oc3cccc(NC(=O)Nc4cc(C5(C(F)(F)F)CCC5)no4)c3)c2cc1OC [Ex 155, 1-(3-(6,7-dimethoxyquinazolin-4-yloxy)phenyl)-3-(3-(1-(trifluoromethyl)cyclobutyl)isoxazol-5-yl)urea]		> 1000 nM	> 1000 nM	C* (0.20 < C ≦ 0.40)	
CC(C)(C)c1cc(NC(=O)Nc2cccc(Sc3ncnc4cc(F)c(F)cc34)c2)no1 [Ex 47, 1-(5-tert-butylisoxazol-3-yl)-3-(3-(6,7-difluoroquinazolin-4-ylthio)phenyl)urea]		> 1000 nM	> 1000 nM		A (A ≦ 0.10)
COc1cc2c(Oc3cccc(NC(=O)Nc4cc(C(C)(C)C)on4)c3)ncnc2cc1O[C@H]1CCN(CC(F)F)C1 [Ex 103, (S)-1-(5-tert-butylisoxazol-3-yl)-3-(3-{7-[1-(2,2-difluoroethyl)pyrrolidin-3-yloxy]-6-methoxyquinazolin-4-yloxy}phenyl)urea]		> 1000 nM	> 1000 nM	C* (0.20 < C ≦ 0.40)	
COc1cc2ncnc(Oc3cccc(NC(=O)Nc4cc(C(C)(C)C)nn4-c4ccccc4)c3)c2cc1OC [Ex 153, 1-(3-tert-butyl-1-phenyl-1H-pyrazol-5-yl)-3-(3-(6,7-dimethoxyquinazolin-4-yloxy)phenyl)urea]		> 1000 nM	> 1000 nM	D* (D > 0.40)	
COCCOc1cc(NC(=O)Nc2cccc(Sc3ncnc4cc(OC)c(OC)cc34)c2)ccc1C(F)(F)F [Ex 148, 1-(3-(6,7-dimethoxyquinazolin-4-ylthio)phenyl)-3-(3-(2-methoxyethoxy)-4-(trifluoromethyl)phenyl)urea]		> 1000 nM	> 1000 nM	B* (0.10 < B ≦ 0.20)	
COc1cc2ncnc(Oc3cccc(NC(=O)Nc4ccccc4)c3)c2cc1OC [Ex 182, 1-(3-(6,7-dimethoxyquinazolin-4-yloxy)phenyl)-3-phenylurea]	> 1000 nM	> 1000 nM	> 1000 nM		
COc1cc2ncnc(Sc3cccc(NC(=O)Nc4cc(C(F)(F)F)nn4-c4ccccc4)c3)c2cc1OC [Ex 192, 1-[3-(6,7-dimethoxyquinazolin-4-ylthio)phenyl]-3-[1-phenyl-3-(trifluoromethyl)-1H-pyrazol-5-yl]urea]		> 1000 nM	> 1000 nM	C* (0.20 < C ≦ 0.40)	
COc1cc2ncnc(Sc3cccc(NC(=O)Nc4ccc(C(F)(F)F)c(OC)c4)c3)c2cc1OC [Ex 190, 1-(3-(6,7-dimethoxyquinazolin-4-ylthio)phenyl)-3-(3-methoxy-4-(trifluoromethyl)phenyl)urea]		> 1000 nM	> 1000 nM	B* (0.10 < B ≦ 0.20)	
